Reference: patent US8940291B2 (priority 2009, dated 2015)

Tested on: VSVΔ51-resistant CT26 colon carcinoma tumors
Parameters: species or system Balb/c mice
Details: mouse, in vivo, ip

O=C1OC(c2ccccc2)C(Cl)=C1Cl (centres unmarked) [VSe1, 3,4-dichloro-5-phenyl-2,5-dihydrofuran-2-one]
tumor growth, compound alone: neither VSe1 nor VSVΔ51 alone had a significant effect on tumor growth | tumor progression, combination with VSVΔ51: significant delay in tumor progression
